Laboratory results reported in patent publication US20200055817A1 (AbbVie Deutschland GmbH & Co. KG, priority 2016, published 2020).

Legend:
Type in all cases: cell-based
S1P4 = biological target: T1, S1P4 (Homo sapiens, UniProt O95977); assay: Aequorin assay, agonist potency, S1P4; conditions: agonist mode, aequorin luminescence
T1 sequence (O95977 1-384): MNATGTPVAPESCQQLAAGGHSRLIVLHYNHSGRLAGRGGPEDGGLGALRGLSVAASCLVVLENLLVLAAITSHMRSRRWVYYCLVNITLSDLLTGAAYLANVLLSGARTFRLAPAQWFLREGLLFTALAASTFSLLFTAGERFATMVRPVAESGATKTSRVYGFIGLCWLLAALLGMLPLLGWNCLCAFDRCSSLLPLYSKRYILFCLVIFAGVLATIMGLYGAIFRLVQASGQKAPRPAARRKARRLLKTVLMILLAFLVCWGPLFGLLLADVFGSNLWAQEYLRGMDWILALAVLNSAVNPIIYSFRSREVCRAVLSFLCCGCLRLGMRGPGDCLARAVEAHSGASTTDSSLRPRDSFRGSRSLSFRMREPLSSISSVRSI
Summary of the method: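 Cells loaded overnight at RT with 5 μM coelenterazine h in DMEM/HAM's F12 with HEPES plus 0.1% fatty acid-free BSA, then injected onto compounds; agonist-induced calcium luminescence recorded for 90 s and integrated. Signal normalised to digitonin (100 μM) or ATP (20 μM) wells, S1P as reference agonist; sigmoidal nonlinear regression.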

[1] = biological target: T2, human EDG1 (S1PR1) receptor (Homo sapiens, UniProt P21453); assay: Aequorin assay, agonist potency, CHO-A21-Edg1#17 cells; conditions: agonist mode, aequorin luminescence; read-out: S1P1 EC50
T2 construct: expressed in transfected cells; host or cells: CHO-A21-Edg1#17 (CHO clone co-expressing mitochondrial aequorin and chimaeric Gaqi5)
T2 sequence (P21453 whole entry): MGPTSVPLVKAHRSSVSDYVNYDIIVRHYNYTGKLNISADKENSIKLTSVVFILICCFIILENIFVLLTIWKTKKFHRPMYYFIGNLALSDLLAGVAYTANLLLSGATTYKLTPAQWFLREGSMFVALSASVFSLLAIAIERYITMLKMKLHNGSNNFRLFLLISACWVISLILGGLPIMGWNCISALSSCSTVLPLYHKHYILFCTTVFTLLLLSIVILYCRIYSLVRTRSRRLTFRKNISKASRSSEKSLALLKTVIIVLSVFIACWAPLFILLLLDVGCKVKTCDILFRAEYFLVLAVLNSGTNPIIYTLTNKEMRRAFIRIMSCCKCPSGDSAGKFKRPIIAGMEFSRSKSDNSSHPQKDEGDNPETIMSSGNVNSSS
Summary of the method: (§1)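 CHO cells coexpressing receptor, mitochondrial aequorin and Gαqi5 (S1P3 pool: GNA16) were loaded overnight at RT with 5 μM coelenterazine h in 0.1% fatty-acid-free BSA buffer. Cells were injected onto compound, luminescence recorded 90 s and integrated, normalised to digitonin or 20 μM ATP; sigmoidal fit.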

[2] = biological target: T3, human EDG8 (S1PR5) receptor (Homo sapiens, UniProt Q9H228); assay: Aequorin assay, agonist potency, CHO-A21-EDG8#12 cells; conditions: agonist mode, aequorin luminescence; read-out: S1P5 EC50 range #
T3 construct: carries the transgenes human EDG8 (S1PR5) receptor (Acession number NP_110387.1); expressed in transfected cells; host or cells: CHO-A21-EDG8#12 (CHO clone co-expressing mitochondrial aequorin and chimaeric Gaqi5)
T3 sequence (Q9H228 whole entry): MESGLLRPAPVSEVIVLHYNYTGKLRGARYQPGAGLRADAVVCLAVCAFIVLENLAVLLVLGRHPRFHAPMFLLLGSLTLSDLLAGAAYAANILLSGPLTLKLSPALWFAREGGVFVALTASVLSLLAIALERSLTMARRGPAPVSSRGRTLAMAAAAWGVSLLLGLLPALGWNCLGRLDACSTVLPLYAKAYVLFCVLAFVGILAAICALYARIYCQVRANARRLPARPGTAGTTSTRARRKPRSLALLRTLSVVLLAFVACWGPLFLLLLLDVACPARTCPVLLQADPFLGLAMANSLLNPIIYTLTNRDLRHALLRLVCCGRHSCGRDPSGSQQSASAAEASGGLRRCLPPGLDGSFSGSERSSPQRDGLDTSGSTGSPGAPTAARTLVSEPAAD
Summary of the method: as §1

Q: Which results are given for `O=C(O)CN1CC2(Cc3ccc(OCc4cccc5c4CCC5)cc3C2)C1` [Example 74, 2-(5′-((2,3-dihydro-1H-inden-4-yl)methoxy)-1′,3′-dihydrospiro[azetidine-3,2′-inden]-1-yl)acetic acid]?
A: EC50 (S1P4): < 1 µM; EC50 [1]: > 1 µM; EC50 [2]: ≤ 0.01 µM

Q: `CC(C)Oc1ccc(C#Cc2ccc3c(c2)CC2(C3)CN(CC(=O)O)C2)cn1` [Example 75, 2-(5′-((6-isopropoxypyridin-3-yl)ethynyl)-1′,3′-dihydrospiro[azetidine-3,2′-inden]-1-yl)acetic acid] was tested. Which EC50 (S1P4) did it give?
A: > 1 µM

Q: What about the EC50 [1] of the same molecule?
A: < 1 µM

Q: What about the EC50 [2] of the same molecule?
A: ≤ 0.01 µM

Q: Which EC50 (S1P4) does the source give for `CC1CCC(C#Cc2ccc3c(c2)CC2(C3)CN(CC(=O)O)C2)CC1` (stereo not drawn) [Example 76, 2-(5′-((4-methylcyclohexyl)ethynyl)-1′,3′-dihydrospiro[azetidine-3,2′-inden]-1-yl)acetic acid] here?
A: < 1 µM

Q: And the EC50 [1]?
A: > 1 µM

Q: What about the EC50 [2] of the same molecule?
A: ≤ 0.01 µM

Q: For `CCOc1ccc(C#Cc2ccc3c(c2)CC2(C3)CN(CC(=O)O)C2)cc1` [Example 77, 2-(5′-((4-ethoxyphenyl)ethynyl)-1′,3′-dihydrospiro[azetidine-3,2′-inden]-1-yl)acetic acid], which EC50 (S1P4) is on record?
A: < 1 µM

Q: What about the EC50 [1] of the same molecule?
A: < 1 µM

Q: What about the EC50 [2] of the same molecule?
A: ≤ 0.01 µM

Q: For `O=C(O)CN1CC2(Cc3ccc(C#Cc4ccc(OC5CCCC5)nc4)cc3C2)C1` [Example 78, 2-(5′-((6-(cyclopentyloxy)pyridin-3-yl)ethynyl)-1′,3′-dihydrospiro[azetidine-3,2′-inden]-1-yl)acetic acid], which EC50 (S1P4) is on record?
A: < 1 µM

Q: What about the EC50 [1] of the same molecule?
A: < 1 µM

Q: What about the EC50 [2] of the same molecule?
A: ≤ 0.01 µM

Q: With `CC(Oc1ccc(C#Cc2ccc3c(c2)CC2(C3)CN(CC(=O)O)C2)cn1)C(F)(F)F` (stereo not drawn) [Example 79, 2-(5′-((6-((1,1,1-trifluoropropan-2-yl)oxy)pyridin-3-yl)ethynyl)-1′,3′-dihydrospiro[azetidine-3,2′-inden]-1-yl)acetic acid] as the molecule, how does the EC50 (S1P4) read?
A: < 1 µM

Q: What about the EC50 [1] of the same molecule?
A: < 1 µM

Q: What about the EC50 [2] of the same molecule?
A: ≤ 0.01 µM

Q: Which results are given for `O=C(O)CN1CC2(Cc3ccc(C#Cc4ccccc4Cl)cc3C2)C1` [Example 80, 2-(5′-((2-chlorophenyl)ethynyl)-1′,3′-dihydrospiro[azetidine-3,2′-inden]-1-yl)acetic acid]?
A: EC50 (S1P4): < 1 µM; EC50 [1]: > 1 µM; EC50 [2]: ≤ 0.01 µM

Q: What does the source list for `O=C(O)CN1CC2(Cc3ccc(C#Cc4ccccc4)cc3C2)C1` [Example 82, 2-(5′-(phenylethynyl)-1′,3′-dihydrospiro[azetidine-3,2′-inden]-1-yl)acetic acid]?
A: EC50 (S1P4): < 1 µM; EC50 [1]: > 1 µM; EC50 [2]: 0.01 to 0.1 µM

Q: Which EC50 (S1P4) does the source give for `O=C(O)C1CC(N2CC3(Cc4ccc(OCc5cccc6c5CCC6)cc4C3)C2)C1` (stereo not drawn) [Example 83, 3-(5′-((2,3-dihydro-1H-inden-4-yl)methoxy)-1′,3′-dihydrospiro[azetidine-3,2′-inden]-1-yl)cyclobutanecarboxylic acid] here?
A: < 1 µM

Q: And the EC50 [1]?
A: > 1 µM

Q: And the EC50 [2]?
A: 0.01 to 0.1 µM

Q: `O=C(O)C1CC(N2CC3(Cc4ccc(OCc5ccc(OCC6CC6)cc5)cc4C3)C2)C1` (stereo not drawn) [Example 84, 3-(5′-((4-(cyclopropylmethoxy)benzyl)oxy)-1′,3′-dihydrospiro[azetidine-3,2′-inden]-1-yl)cyclobutanecarboxylic acid] was tested. Which EC50 (S1P4) did it give?
A: > 1 µM

Q: And the EC50 [1]?
A: > 1 µM

Q: And the EC50 [2]?
A: 1 to 10 µM

Q: With `CCOc1cc(F)c(COc2ccc3c(c2)CC2(C3)CN(C3CC(C(=O)O)C3)C2)c(F)c1` (stereo not drawn) [Example 85, 3-(5′-((4-ethoxy-2,6-difluorobenzyl)oxy)-1′,3′-dihydrospiro[azetidine-3,2′-inden]-1-yl)cyclobutanecarboxylic acid] as the molecule, how does the EC50 (S1P4) read?
A: < 1 µM

Q: What about the EC50 [1] of the same molecule?
A: > 1 µM

Q: And the EC50 [2]?
A: 1 to 10 µM

Q: What does the source list for `CCOc1ccc(COc2ccc3c(c2)CC2(C3)CN(C3CC(C(=O)O)C3)C2)c(F)c1F` (stereo not drawn) [Example 86, 3-(5′-((4-ethoxy-2,3-difluorobenzyl)oxy)-1′,3′-dihydrospiro[azetidine-3,2′-inden]-1-yl)cyclobutanecarboxylic acid]?
A: EC50 (S1P4): < 1 µM; EC50 [1]: > 1 µM; EC50 [2]: 1 to 10 µM

Q: How did the EC50 (S1P4) turn out when `O=C(O)C1CC(N2CC3(Cc4ccc(OCc5c(F)cccc5C5CC5)cc4C3)C2)C1` (stereo not drawn) [Example 87, 3-(5′-((2-cyclopropyl-6-fluorobenzyl)oxy)-1′,3′-dihydrospiro[azetidine-3,2′-inden]-1-yl)cyclobutanecarboxylic acid] was run?
A: < 1 µM

Q: What about the EC50 [1] of the same molecule?
A: > 1 µM

Q: And the EC50 [2]?
A: ≤ 0.01 µM

Q: How did the EC50 (S1P4) turn out when `COc1ccc(COc2ccc3c(c2)CC2(C3)CN(C3CC(C(=O)O)C3)C2)c(C)n1` (stereo not drawn) [Example 88, 3-(5′-((6-methoxy-2-methylpyridin-3-yl)methoxy)-1′,3′-dihydrospiro[azetidine-3,2′-inden]-1-yl)cyclobutanecarboxylic acid] was run?
A: < 1 µM

Q: What about the EC50 [1] of the same molecule?
A: > 1 µM

Q: What about the EC50 [2] of the same molecule?
A: 1 to 10 µM

Q: How did the EC50 (S1P4) turn out when `O=C(O)[C@H]1C[C@H](N2CC3(Cc4ccc(OCc5cc(Cl)ccc5Cl)cc4C3)C2)C1` [Example 89, (1r,3r)-3-(5′-((2,5-dichlorobenzyl)oxy)-1′,3′-dihydrospiro[azetidine-3,2′-inden]-1-yl)cyclobutanecarboxylic acid] was run?
A: < 1 µM

Q: What about the EC50 [1] of the same molecule?
A: > 1 µM

Q: And the EC50 [2]?
A: 0.01 to 0.1 µM

Q: `O=C(O)[C@H]1C[C@@H](N2CC3(Cc4ccc(OCc5cc(Cl)ccc5Cl)cc4C3)C2)C1` [Example 90, (1s,3s)-3-(5′-((2,5-dichlorobenzyl)oxy)-1′,3′-dihydrospiro[azetidine-3,2′-inden]-1-yl)cyclobutanecarboxylic acid] was tested. Which EC50 (S1P4) did it give?
A: < 1 µM

Q: What about the EC50 [1] of the same molecule?
A: > 1 µM

Q: What about the EC50 [2] of the same molecule?
A: 0.1 to 1 µM

Q: What does the source list for `O=C(O)C1CC(N2CC3(Cc4ccc(OCc5c(Cl)cccc5C5CC5)cc4C3)C2)C1` (stereo not drawn) [Example 91, 3-(5′-((2-chloro-6-cyclopropylbenzyl)oxy)-1′,3′-dihydrospiro[azetidine-3,2′-inden]-1-yl)cyclobutanecarboxylic acid]?
A: EC50 (S1P4): < 1 µM; EC50 [1]: < 1 µM; EC50 [2]: ≤ 0.01 µM

Q: `O=C(O)C1CC(N2CC3(Cc4ccc(OCc5c(Cl)cccc5Cl)cc4C3)C2)C1` (stereo not drawn) [Example 92, 3-(5′-((2,6-dichlorobenzyl)oxy)-1′,3′-dihydrospiro[azetidine-3,2′-inden]-1-yl)cyclobutanecarboxylic acid] was tested. Which EC50 (S1P4) did it give?
A: < 1 µM

Q: And the EC50 [1]?
A: > 1 µM

Q: What about the EC50 [2] of the same molecule?
A: ≤ 0.01 µM

Q: How did the EC50 (S1P4) turn out when `O=C(O)C1CC(N2CC3(Cc4ccc(OCc5cc(Cl)ccc5Cl)cc4C3)C2)C1` (stereo not drawn) [Example 93, 3-(5′-((2,5-dichlorobenzyl)oxy)-1′,3′-dihydrospiro[azetidine-3,2′-inden]-1-yl)cyclobutanecarboxylic acid] was run?
A: < 1 µM

Q: And the EC50 [1]?
A: > 1 µM

Q: What about the EC50 [2] of the same molecule?
A: 0.01 to 0.1 µM

Q: Which results are given for `CCc1cccc(Cl)c1COc1ccc2c(c1)CC1(C2)CN(C2CC(C(=O)O)C2)C1` (stereo not drawn) [Example 94, 3-(5′-((2-chloro-6-ethylbenzyl)oxy)-1′,3′-dihydrospiro[azetidine-3,2′-inden]-1-yl)cyclobutanecarboxylic acid]?
A: EC50 (S1P4): < 1 µM; EC50 [1]: < 1 µM; EC50 [2]: ≤ 0.01 µM

Q: Which results are given for `O=C(O)C1CC(N2CC3(Cc4ccc(C#Cc5ccc(OC6CCCC6)nc5)cc4C3)C2)C1` (stereo not drawn) [Example 95, 3-(5′-((6-(cyclopentyloxy)pyridin-3-yl)ethynyl)-1′,3′-dihydrospiro[azetidine-3,2′-inden]-1-yl)cyclobutanecarboxylic acid]?
A: EC50 (S1P4): < 1 µM; EC50 [1]: < 1 µM; EC50 [2]: ≤ 0.01 µM

Q: Which EC50 (S1P4) does the source give for `CC(C)Oc1ccc(C#Cc2ccc3c(c2)CC2(C3)CN(C3CC(C(=O)O)C3)C2)cn1` (stereo not drawn) [Example 96, 3-(5′-((6-isopropoxypyridin-3-yl)ethynyl)-1′,3′-dihydrospiro[azetidine-3,2′-inden]-1-yl)cyclobutanecarboxylic acid] here?
A: > 1 µM

Q: What about the EC50 [1] of the same molecule?
A: < 1 µM

Q: What about the EC50 [2] of the same molecule?
A: 0.01 to 0.1 µM
